Data taken from patent US6531645B1, “RAS/P21 transgenic mouse” (University of South Florida, priority 2000, dated 2003).

Tested on: mammary tumors of MMTV/v-Ha-ras/p21WAF1 (−/−) transgenic mice
Experiment: Antitumor efficacy of FTI-2148 in MMTV/v-Ha-ras/p21WAF1 (−/−) transgenic mice
Assay type: in vivo, mouse
Details: 50 mg/Kg/day by subcutaneous osmotic mini-pump
Description: The MMTV/v-Ha-Ras/p21waf(−/−) transgenic mice are generated as described herein. When the three mammary tumors reach 4500 mm^3, 2000 mm^3 and 900 mm^3 (see FIG. 1), the mice are implanted subcutaneously with an osmotic mini-pump that delivers 50 mg/Kg/day of the farnesyltransferase inhibitor FTI-2148 that was designed to block oncogenic H-Ras malignant transformation. […] Thus, within 6 days of drug treatment one skilled in the art can determine whether a drug has antitumor activity.
Tumor Development Monitoring and Sample Collection. The female offspring are monitored weekly for tumors by observation and palpation. Tumor diameters are measured in three dimensions using calipers, and tumor volume is calculated as length x width x height. Samples of tumor and normal tissue are collected in 10% neutral buffered formalin for histopathologic analysis. All surgical and experimental procedures performed on the mice are in accordance the NIH guidelines outlined in the “Guide for Care and Use of Laboratory Animals” (NIH publication 85-23). Animals are autopsied immediately after sacrifice, and external as well as internal organs are grossly examined. Representative tissue samples are obtained from salivary glands, mammary glands, lungs, liver, kidneys, spleen, and Harderian (lacrimal) glands. For general microscopy, tissues are embedded in paraffin, and 3 μm-thick sections are cut and stained with hematoxylin and eosin. Tissues are also processed using either an avidin-biotin complex method or a labeled streptavidin-biotin method after antigen retrieval. […] Negative and positive controls include the omission of the primary antibody and normal or tumor tissues with known high marker expression. p21^WAF1/CIP1 expression is analyzed by immunohistochemistry with an anti-p21 antibody (sc-397-G, Santa Cruz Biotechnology). […]

CSCC[C@H](NC(=O)c1ccc(CNCc2cnc[nH]2)cc1-c1ccccc1C)C(=O)O [FTI-2148]
fate by day 15 of one of the three mammary tumors (day 15): one tumor disappears | tumor volume by day 15 of the two tumors that started out at 4500 mm^3 and 2000 mm^3 (day 15): less than 500 mm^3 | time of treatment within which the tumors start to regress (three mammary tumors of 4500, 2000 and 900 mm^3 at start): ≤ 6 days
